The values below are quoted from earlier work in patent publication US12636262B2, “Process for the preparation of topical formulation” (Neuheit Pharma Technologies Pvt. Ltd, priority 2019, dated 2026).

For this series the following is noted: reported.

Turning to `CC(=O)Oc1cccc2c1C(=O)c1c(OC(C)=O)cc(C(=O)O)cc1C2=O` [Diacerein, 4,5-diacetyloxy-9,10-dioxo-anthracene-2-carboxylic acid], the oral bioavailability is 40-60%.
